Experimental data reported in patent US9586931B2 (Merck Sharp & Dohme Corp., priority 2012, dated 2017).
pIC50: −log10 of the molar value.

target: T1, recombinant human GST-Syk (Homo sapiens, UniProt P43405); test: Homogeneous Time-Resolved Fluorescence (HTRF) assay for the recombinant human Syk enzyme; type: biochemical; details: recombinant human GST-Syk 5 pM, ATP 25 μM, 10-dose titration 10 μM to 0.508 nM; read-out: rhSYK Activity IC50
T1 construct: purchased Carna Biosciences 08-176
Method in brief: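 GST-hSyk fusion protein phosphorylated a peptide for 45 min at room temperature. The reaction was quenched with 2 nM Eu-anti-phosphotyrosine antibody and 70 nM SA-APC in 15 mM Tris pH 7.5, 40 mM EDTA, 0.01% Tween 20. The HTRF signal was read after 30 min.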

First: Cc1cc(Nc2cc(C(F)(F)F)ccn2)nc(-c2cn(CC(O)C(O)COc3ccccc3Cl)nn2)c1 (stereo not shown) [Example 10.8, 1-(2-chlorophenoxy)-4-[4-(4-methyl-6-{[4-(trifluoromethyl)pyridin-2-yl]amino}pyridin-2-yl)-1H-1,2,3-triazol-1-yl]butane-2,3-diol]
Second: Cc1cc(Nc2cc(C(F)(F)F)ccn2)nc(-c2cn(CC(O)CN)nn2)c1 (stereo not shown) [Example 4.22, 1-amino-3-[4-(4-methyl-6-{[4-(trifluoromethyl)pyridin-2-yl]amino}pyridin-2-yl)-1H-1,2,3-triazol-1-yl]propan-2-ol]
The pIC50 of the first is 1.32 log units lower: 7.20 for the first, 8.52 for the second. The second is the more potent here.

First: Cc1cc(Nc2nccc(C)n2)cc(-c2cn(CC(C)(O)C(C)(C)O)nn2)c1 (stereo not shown) [Example 21.35, 2,3-dimethyl-1-(4-{3-methyl-5-[(4-methylpyrimidin-2-yl)amino]phenyl}-1H-1,2,3-triazol-1-yl)butane-2,3-diol]
Second: Cc1cc(Nc2cc(C(F)F)ccn2)nc(-c2cn(CC(C)(O)C(C)(C)O)nn2)c1 (stereo not shown) [Example 21.36, 1-[4-(6-{[4-(difluoromethyl)pyridin-2-yl]amino}-4-methylpyridin-2-yl)-1H-1,2,3-triazol-1-yl]-2,3-dimethylbutane-2,3-diol]
The pIC50 of the first is 1.01 log units lower: 7.08 for the first, 8.09 for the second.

`Cc1cc(Nc2nccc(C(F)(F)F)n2)cc(-n2cc(CC(O)CO)nn2)c1` (stereo not shown) [Example 15.7, 3-[1-(3-methyl-5-{[4-(trifluoromethyl)pyrimidin-2-yl]amino}phenyl)-1H-1,2,3-triazol-4-yl]propane-1,2-diol] and `Cc1cc(Nc2nccc(C(F)(F)F)n2)cc(-c2cn(CC#N)nn2)c1` [Example 5.78, [4-(3-methyl-5-{[4-(trifluoromethyl)pyrimidin-2-yl]amino}phenyl)-1H-1,2,3-triazol-1-yl]acetonitrile] are within 0.2 log units of each other in pIC50: 7.27 for the first, 7.08 for the second.

First: CC(C)=CCn1cc(-c2cc(C)cc(Nc3cc(C(F)(F)F)ccn3)n2)nn1 [Example 5.37, 4-methyl-6-[1-(3-methylbut-2-en-1-yl)-1H-1,2,3-triazol-4-yl]-N-[4-(trifluoromethyl)pyridin-2-yl]pyridin-2-amine]
Second: Cc1cc(Nc2cc(C(F)(F)F)ccn2)nc(-c2cn(CCCO)nn2)c1 [Example 5.94, 3-[4-(4-methyl-6-{[4-(trifluoromethyl)pyridin-2-yl]amino}pyridin-2-yl)-1H-1,2,3-triazol-1-yl]propan-1-ol]
The pIC50 of the first is 1.20 log units higher: 7.52 for the first, 6.32 for the second.

Compared with `Cc1cc(Nc2cc(C(F)(F)F)ccn2)nc(-c2cn(C(C)C(=O)NCCc3ccc4ccccc4c3)nn2)c1` (stereo not shown) [Example 1.32, 2-[4-(4-methyl-6-{[4-(trifluoromethyl)pyridin-2-yl]amino}pyridin-2-yl)-1H-1,2,3-triazol-1-yl]-N-(2-naphthalen-2-ylethyl)propanamide], `Cc1cc(Nc2cc(C(F)(F)F)ccn2)nc(-c2cn(C(C)C(=O)N[C@@H](CO)Cc3ccccc3)nn2)c1` (stereo partly drawn) [Example 1.27, N-[(1R)-1-benzyl-2-hydroxyethyl]-2-[4-(4-methyl-6-{[4-(trifluoromethyl)pyridin-2-yl]amino}pyridin-2-yl)-1H-1,2,3-triazol-1-yl]propanamide] is 0.54 log units higher in pIC50: 6.45 for the first, 6.99 for the second. The second is the more potent here.

`Cc1cc(Nc2nccc(C(F)(F)F)n2)cc(-c2cn(C3CS(=O)(=O)CC3O)nn2)c1` (stereo not shown) [Example 5.63, 4-[4-(3-methyl-5-{[4-(trifluoromethyl)pyrimidin-2-yl]amino}phenyl)-1H-1,2,3-triazol-1-yl]tetrahydrothiophene-3-ol 1,1-dioxide] and `Cc1cc(Nc2nccc(C(F)(F)F)n2)cc(-c2cn(C(C)C(O)CC#N)nn2)c1` (single isomer, unassigned) [Example 4.7, 3-hydroxy-4-[4-(3-methyl-5-{[4-(trifluoromethyl)pyrimidin-2-yl]amino}phenyl)-1H-1,2,3-triazol-1-yl]pentanenitrile] are within 0.2 log units of each other in pIC50: 7.62 for the first, 7.80 for the second.

Going from `Cc1cc(Nc2nccc(C)n2)cc(-c2cn(C3CCCCC3O)nn2)c1` (single isomer, unassigned) [Example 7.21, 2-(4-{3-methyl-5-[(4-methylpyrimidin-2-yl)amino]phenyl}-1H-1,2,3-triazol-1-yl)cyclohexanol] to `Cc1cc(Nc2cc(C(F)(F)F)ccn2)nc(-c2cn(C3CCCCC(O)C3O)nn2)c1` (single isomer, unassigned) [Example 10.6, 3-[4-(4-methyl-6-{[4-(trifluoromethyl)pyridin-2-yl]amino}pyridin-2-yl)-1H-1,2,3-triazol-1-yl]cycloheptane-1,2-diol], the pIC50 rises from 7.16 to 8.33 (1.17 log units).

Compared with `Cc1cc(Nc2cc(C(F)(F)F)ccn2)nc(-c2cn(C3CCC(C(=O)O)C(C)(C)C3)nn2)c1` (single isomer, unassigned) [Example 3.8, 2,2-dimethyl-4-[4-(4-methyl-6-{[4-(trifluoromethyl)pyridin-2-yl]amino}pyridin-2-yl)-1H-1,2,3-triazol-1-yl]cyclohexanecarboxylic acid], `Cc1cc(Nc2cc(C(F)(F)F)ccn2)nc(-c2cn(CC3(O)CCC(C(=O)O)C(C)(C)C3)nn2)c1` (stereo not shown) [Example 3.5, 4-hydroxy-2,2-dimethyl-4-{[4-(4-methyl-6-{[4-(trifluoromethyl)pyridin-2-yl]amino}pyridin-2-yl)-1H-1,2,3-triazol-1-yl]methyl}cyclohexanecarboxylic acid] is 0.86 log units lower in pIC50: 8.01 for the first, 7.15 for the second. The first is the more potent here.

`Cc1cc(Nc2cc(C(F)(F)F)ccn2)nc(-c2cn(C(CO)c3ccc(F)cc3)nn2)c1` (stereo not shown) [Example 13.7, 2-(4-fluorophenyl)-2-[4-(4-methyl-6-{[4-(trifluoromethyl)pyridin-2-yl]amino}pyridin-2-yl)-1H-1,2,3-triazol-1-yl]ethanol] and `Cc1cc(Nc2cc(C(F)(F)F)ccn2)nc(-c2cn(C(C(=O)O)c3ccc(F)cc3)nn2)c1` (stereo not shown) [Example 3.10, (4-fluorophenyl)[4-(4-methyl-6-{[4-(trifluoromethyl)pyridin-2-yl]amino}pyridin-2-yl)-1H-1,2,3-triazol-1-yl]acetic acid] are within 0.2 log units of each other in pIC50: 8.43 for the first, 8.41 for the second.

`Cc1cc(Nc2cc(C(F)F)ccn2)nc(-c2cn(CC3CNCCO3)nn2)c1` (single isomer, unassigned) [Example 26.1, N-(4-(difluoromethyl)pyridin-2-yl)-4-methyl-6-(1-(morpholin-2-ylmethyl)-1H-1,2,3-triazol-4-yl)pyridin-2-amine] and `Cc1cc(Nc2cc(C(F)(F)F)ccn2)nc(-c2cn(CC(O)CF)nn2)c1` (racemic) [Example 5.93, 1-fluoro-3-[4-(4-methyl-6-{[4-(trifluoromethyl)pyridin-2-yl]amino}pyridin-2-yl)-1H-1,2,3-triazol-1-yl]propan-2-ol] are within 0.2 log units of each other in pIC50: 8.24 for the first, 8.22 for the second.

First: Cc1cc(Nc2cc(C(F)(F)F)ccn2)nc(-c2cn([C@@H](C)C(=O)N3CCC[C@H]3C(=O)O)nn2)c1 [Example 3.13, 1-{(2S)-2-[4-(4-methyl-6-{[4-(trifluoromethyl)pyridin-2-yl]amino}pyridin-2-yl)-1H-1,2,3-triazol-1-yl]propanoyl}proline]
Second: Cc1cc(Nc2cc(C(F)(F)F)ccn2)nc(-c2cn([C@@H](C)C(=O)NCC(=O)O)nn2)c1 [Example 3.15, N-{(2S)-2-[4-(4-methyl-6-{[4-(trifluoromethyl)pyridin-2-yl]amino}pyridin-2-yl)-1H-1,2,3-triazol-1-yl]propanoyl}glycine]
The pIC50 of the first is 1.03 log units lower: 7.02 for the first, 8.05 for the second.

`Cc1cc(Nc2nccc(C(F)F)n2)cc(-c2cn(CC3CNC(=O)O3)nn2)c1` (single isomer, unassigned) [Example 7.5, 5-((4-(3-((4-(difluoromethyl)pyrimidin-2-yl)amino)-5-methylphenyl)-1H-1,2,3-triazol-1-yl)methyl)oxazolidin-2-one] and `Cc1cc(Nc2nccc(C(F)F)n2)cc(-c2cn(C(C)C(C)(O)CO)nn2)c1` (single isomer, unassigned) [Example 30.3, 3-(4-(3-((4-(Difluoromethyl)pyrimidin-2-yl)amino)-5-methylphenyl)-1H-1,2,3-triazol-1-yl)-2-methylbutane-1,2-diol] are within 0.2 log units of each other in pIC50: 8.15 for the first, 8.10 for the second.

First: Cc1cc(Nc2cc(C(F)(F)F)ccn2)nc(-c2cn(-c3ccc(Br)cn3)nn2)c1 [6.2]
Second: Cc1cc(Nc2cc(C(F)(F)F)ccn2)nc(-c2nnc[nH]2)c1 [Example 16.2, 4-methyl-6-(4H-1,2,4-triazol-3-yl)-N-[4-(trifluoromethyl)pyridin-2-yl]pyridin-2-amine]
The pIC50 of the first is 0.53 log units lower: 5.95 for the first, 6.48 for the second.

Compared with `Cc1cc(Nc2cc(C(F)(F)F)ccn2)nc(-c2cn(C3CCNC(=O)CC3)nn2)c1` (racemic) [Example 11.2, 5-[4-(4-methyl-6-{[4-(trifluoromethyl)pyridin-2-yl]amino}pyridin-2-yl)-1H-1,2,3-triazol-1-yl]azepan-2-one], `Cc1cc(Nc2cc(C(F)(F)F)ccn2)nc(-c2cn(CC3(O)CCC(C(=O)O)C(C)(C)C3)nn2)c1` (single isomer, unassigned) [Example 3.1, (R or S) 4-hydroxy-2,2-dimethyl-4-{[4-(4-methyl-6-{[4-(trifluoromethyl)pyridin-2-yl]amino}pyridin-2-yl)-1H-1,2,3-triazol-1-yl]methyl}cyclohexanecarboxylic acid] is 0.40 log units lower in pIC50: 7.62 for the first, 7.22 for the second.

Going from `Cc1cc(Nc2cc(C(C)O)ccn2)nc(-c2cn(C(C)c3ccc(C(=O)O)cc3)nn2)c1` (stereo not shown) [Example 2.3, 4-{1-[4-(6-{[4-(1-hydroxyethyl)pyridin-2-yl]amino}-4-methylpyridin-2-yl)-1H-1,2,3-triazol-1-yl]ethyl}benzoic acid] to `Cc1cc(Nc2cc(C3CCC3)ccn2)nc(-c2cn(C(C)c3ccc(C(=O)O)cc3)nn2)c1` (stereo not shown) [Example 2.10, 4-[1-(4-{6-[(4-cyclobutylpyridin-2-yl)amino]-4-methylpyridin-2-yl}-1H-1,2,3-triazol-1-yl)ethyl]benzoic acid], the pIC50 rises from 7.68 to 8.43 (0.75 log units).

Compound `Cc1cc(Nc2nccc(C(F)F)n2)cc(-c2cn(C(C)C(C)(O)CO)nn2)c1` (single isomer, unassigned) [Example 30.1, 3-(4-(3-((4-(Difluoromethyl)pyrimidin-2-yl)amino)-5-methylphenyl)-1H-1,2,3-triazol-1-yl)-2-methylbutane-1,2-diol] has a pIC50 of 7.91.
